Values of other authors in patent US10878939B2, “Methods and compositions for personalized pain management” (Children's Hospital Medical Center, priority 2014, dated 2020).

Conditions: other reports; cited from earlier work

For `CN1CC[C@]23c4c5ccc(O[C@@H]6O[C@H](C(=O)O)[C@@H](O)[C@H](O)[C@H]6O)c4O[C@H]2[C@@H](O)C=C[C@H]3[C@H]1C5` [M3G, Morphine-3-Glucuronide], the “M3G metabolite formation relative to M6G formation” value is listed as 7-10 fold.
